Measurements published in PubChem BioAssay (NCI).
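A five-concentration, 48-hour dose response in 96-well plates underlies each endpoint, interpolated linearly between surrounding concentrations. At the TGI there is no net growth.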

What was measured:
Assay in all cases: NCI anticancer screen, dose series, 48 h
786-0 renal = test system: 786-0 renal
A498 renal = test system: A498 renal
A549 NSCLC = test system: A549 NSCLC
ACHN renal = test system: ACHN renal
BT-549 breast = test system: BT-549 breast
CAKI-1 renal = test system: CAKI-1 renal
CCRF-CEM leukemia = test system: CCRF-CEM leukemia
COLO 205 colon = test system: COLO 205 colon
DU-145 prostate = test system: DU-145 prostate
EKVX NSCLC = test system: EKVX NSCLC
HCC-2998 colon = test system: HCC-2998 colon
HCT-116 colon = test system: HCT-116 colon
HCT-15 colon = test system: HCT-15 colon
HL-60(TB) leukemia = test system: HL-60(TB) leukemia
HOP-62 NSCLC = test system: HOP-62 NSCLC
HOP-92 NSCLC = test system: HOP-92 NSCLC
HS 578T breast = test system: HS 578T breast
HT29 colon = test system: HT29 colon
IGROV1 ovarian = test system: IGROV1 ovarian
K-562 leukemia = test system: K-562 leukemia
KM12 colon = test system: KM12 colon
LOX IMVI melanoma = test system: LOX IMVI melanoma
M14 melanoma = test system: M14 melanoma
MALME-3M melanoma = test system: MALME-3M melanoma
MCF7 breast = test system: MCF7 breast
MDA-MB-231 breast = test system: MDA-MB-231 breast
MDA-MB-435 = test system: MDA-MB-435
MDA-N = test system: MDA-N
MOLT-4 leukemia = test system: MOLT-4 leukemia
NCI-H23 lung = test system: NCI-H23 lung
NCI-H460 lung = test system: NCI-H460 lung
NCI-H522 lung = test system: NCI-H522 lung
NCI/ADR-RES ovarian = test system: NCI/ADR-RES ovarian
OVCAR-3 ovarian = test system: OVCAR-3 ovarian
OVCAR-4 ovarian = test system: OVCAR-4 ovarian
OVCAR-5 ovarian = test system: OVCAR-5 ovarian
OVCAR-8 ovarian = test system: OVCAR-8 ovarian
PC-3 prostate = test system: PC-3 prostate
RPMI-8226 leukemia = test system: RPMI-8226 leukemia
RXF 393 renal = test system: RXF 393 renal
SF-268 CNS = test system: SF-268 CNS
SF-295 CNS = test system: SF-295 CNS
SK-MEL-2 melanoma = test system: SK-MEL-2 melanoma
SK-MEL-28 melanoma = test system: SK-MEL-28 melanoma
SK-MEL-5 melanoma = test system: SK-MEL-5 melanoma
SK-OV-3 ovarian = test system: SK-OV-3 ovarian
SN12C renal = test system: SN12C renal
SNB-19 CNS = test system: SNB-19 CNS
SNB-75 CNS = test system: SNB-75 CNS
SW-620 colon = test system: SW-620 colon
T-47D breast = test system: T-47D breast
TK-10 renal = test system: TK-10 renal
U251 CNS = test system: U251 CNS
UACC-257 melanoma = test system: UACC-257 melanoma
UACC-62 melanoma = test system: UACC-62 melanoma
UO-31 renal = test system: UO-31 renal
NCI-H226 lung = test system: NCI-H226 lung
SF-539 CNS = test system: SF-539 CNS

`Cc1cc2nc(N3C(=O)/C(=C/c4ccc(Oc5ccccc5)cc4)N=C3c3ccccc3)sc2cc1C` was tested, and the TGI (786-0 renal) was > 100 µM, the TGI (A498 renal) was > 100 µM and the TGI (A549 NSCLC) was > 100 µM. The TGI (ACHN renal) was > 100 µM, the TGI (BT-549 breast) was > 100 µM and the TGI (CAKI-1 renal) was > 100 µM. For the same compound, the TGI (CCRF-CEM leukemia) was > 100 µM, the TGI (COLO 205 colon) was 47.6 µM and the TGI (DU-145 prostate) was > 100 µM. The TGI (EKVX NSCLC) was > 100 µM, the TGI (HCC-2998 colon) was > 100 µM and the TGI (HCT-116 colon) was > 100 µM. For the same compound, the TGI (HCT-15 colon) was > 100 µM, the TGI (HL-60(TB) leukemia) was 63.8 µM and the TGI (HOP-62 NSCLC) was > 100 µM. The TGI (HOP-92 NSCLC) was > 100 µM, the TGI (HS 578T breast) was > 100 µM and the TGI (HT29 colon) was > 100 µM. The TGI (IGROV1 ovarian) was > 100 µM, the TGI (K-562 leukemia) was > 100 µM and the TGI (KM12 colon) was > 100 µM. The TGI (LOX IMVI melanoma) was > 100 µM, the TGI (M14 melanoma) was > 100 µM and the TGI (MALME-3M melanoma) was > 100 µM. The TGI (MCF7 breast) was > 100 µM, the TGI (MDA-MB-231 breast) was > 100 µM and the TGI (MDA-MB-435) was 83.4 µM. For the same compound, the TGI (MDA-N) was > 100 µM, the TGI (MOLT-4 leukemia) was > 100 µM and the TGI (NCI-H23 lung) was > 100 µM. For the same compound, the TGI (NCI-H460 lung) was > 100 µM, the TGI (NCI-H522 lung) was 80.5 µM and the TGI (NCI/ADR-RES ovarian) was 91.6 µM. For the same compound, the TGI (OVCAR-3 ovarian) was > 100 µM, the TGI (OVCAR-4 ovarian) was > 100 µM and the TGI (OVCAR-5 ovarian) was > 100 µM. The TGI (OVCAR-8 ovarian) was > 100 µM, the TGI (PC-3 prostate) was > 100 µM and the TGI (RPMI-8226 leukemia) was 86.8 µM. For the same compound, the TGI (RXF 393 renal) was > 100 µM, the TGI (SF-268 CNS) was > 100 µM and the TGI (SF-295 CNS) was > 100 µM. For the same compound, the TGI (SK-MEL-2 melanoma) was 71.6 µM, the TGI (SK-MEL-28 melanoma) was > 100 µM and the TGI (SK-MEL-5 melanoma) was > 100 µM. For the same compound, the TGI (SK-OV-3 ovarian) was > 100 µM, the TGI (SN12C renal) was > 100 µM and the TGI (SNB-19 CNS) was > 100 µM. For the same compound, the TGI (SNB-75 CNS) was > 100 µM, the TGI (SW-620 colon) was > 100 µM and the TGI (T-47D breast) was > 100 µM. For the same compound, the TGI (TK-10 renal) was > 100 µM, the TGI (U251 CNS) was > 100 µM and the TGI (UACC-257 melanoma) was > 100 µM. For the same compound, the TGI (UACC-62 melanoma) was > 100 µM and the TGI (UO-31 renal) was > 100 µM.

In the case of `CCSc1cc(C(=O)OC)c2n(c1=O)CCCC2`, the TGI (786-0 renal) is reported as > 100 µM, the TGI (A498 renal) is reported as > 100 µM and the TGI (A549 NSCLC) is reported as > 100 µM. The TGI (ACHN renal) was > 100 µM, the TGI (BT-549 breast) was > 100 µM and the TGI (CAKI-1 renal) was > 100 µM. For the same compound, the TGI (CCRF-CEM leukemia) was > 100 µM, the TGI (COLO 205 colon) was > 100 µM and the TGI (DU-145 prostate) was > 100 µM. The TGI (EKVX NSCLC) was > 100 µM, the TGI (HCT-116 colon) was > 100 µM and the TGI (HCT-15 colon) was > 100 µM. The TGI (HL-60(TB) leukemia) was > 100 µM, the TGI (HOP-62 NSCLC) was > 100 µM and the TGI (HS 578T breast) was > 100 µM. The TGI (HT29 colon) was > 100 µM, the TGI (IGROV1 ovarian) was > 100 µM and the TGI (KM12 colon) was > 100 µM. For the same compound, the TGI (LOX IMVI melanoma) was > 100 µM, the TGI (M14 melanoma) was > 100 µM and the TGI (MALME-3M melanoma) was > 100 µM. The TGI (MCF7 breast) was > 100 µM, the TGI (MDA-MB-231 breast) was > 100 µM and the TGI (MDA-MB-435) was > 100 µM. The TGI (MDA-N) was > 100 µM, the TGI (MOLT-4 leukemia) was > 100 µM and the TGI (NCI-H226 lung) was > 100 µM. For the same compound, the TGI (NCI-H23 lung) was > 100 µM, the TGI (NCI-H522 lung) was > 100 µM and the TGI (NCI/ADR-RES ovarian) was > 100 µM. The TGI (OVCAR-4 ovarian) was > 100 µM, the TGI (OVCAR-5 ovarian) was > 100 µM and the TGI (OVCAR-8 ovarian) was > 100 µM. For the same compound, the TGI (PC-3 prostate) was > 100 µM, the TGI (RXF 393 renal) was > 100 µM and the TGI (SF-268 CNS) was > 100 µM. For the same compound, the TGI (SF-295 CNS) was > 100 µM, the TGI (SF-539 CNS) was > 100 µM and the TGI (SK-MEL-2 melanoma) was > 100 µM. For the same compound, the TGI (SK-MEL-28 melanoma) was > 100 µM, the TGI (SK-MEL-5 melanoma) was > 100 µM and the TGI (SK-OV-3 ovarian) was > 100 µM. The TGI (SN12C renal) was > 100 µM, the TGI (SNB-19 CNS) was > 100 µM and the TGI (SNB-75 CNS) was > 100 µM. For the same compound, the TGI (SW-620 colon) was > 100 µM, the TGI (T-47D breast) was > 100 µM and the TGI (TK-10 renal) was > 100 µM. For the same compound, the TGI (U251 CNS) was > 100 µM, the TGI (UACC-257 melanoma) was > 100 µM and the TGI (UACC-62 melanoma) was > 100 µM. The TGI (UO-31 renal) was > 100 µM.

For `Cn1c(=O)c2ccccc2c2ccccc21`, the TGI (786-0 renal) was > 100 µM, the TGI (A498 renal) was 93.8 µM and the TGI (A549 NSCLC) was > 100 µM. The TGI (ACHN renal) was > 100 µM, the TGI (BT-549 breast) was > 100 µM and the TGI (CAKI-1 renal) was 89.8 µM. The TGI (CCRF-CEM leukemia) was > 100 µM, the TGI (COLO 205 colon) was > 100 µM and the TGI (DU-145 prostate) was > 100 µM. The TGI (EKVX NSCLC) was 63.1 µM, the TGI (HCC-2998 colon) was > 100 µM and the TGI (HCT-116 colon) was > 100 µM. The TGI (HCT-15 colon) was > 100 µM, the TGI (HOP-62 NSCLC) was > 100 µM and the TGI (HOP-92 NSCLC) was > 100 µM. The TGI (HS 578T breast) was > 100 µM, the TGI (HT29 colon) was > 100 µM and the TGI (KM12 colon) was > 100 µM. The TGI (LOX IMVI melanoma) was > 100 µM, the TGI (M14 melanoma) was > 100 µM and the TGI (MALME-3M melanoma) was > 100 µM. The TGI (MCF7 breast) was > 100 µM, the TGI (MDA-MB-231 breast) was > 100 µM and the TGI (MDA-MB-435) was > 100 µM. The TGI (MDA-N) was > 100 µM, the TGI (NCI-H226 lung) was > 100 µM and the TGI (NCI-H23 lung) was > 100 µM. The TGI (NCI-H460 lung) was > 100 µM, the TGI (NCI-H522 lung) was > 100 µM and the TGI (NCI/ADR-RES ovarian) was > 100 µM. The TGI (OVCAR-3 ovarian) was > 100 µM, the TGI (OVCAR-4 ovarian) was > 100 µM and the TGI (OVCAR-8 ovarian) was > 100 µM. The TGI (PC-3 prostate) was > 100 µM, the TGI (RPMI-8226 leukemia) was > 100 µM and the TGI (RXF 393 renal) was > 100 µM. The TGI (SF-268 CNS) was > 100 µM, the TGI (SF-295 CNS) was > 100 µM and the TGI (SF-539 CNS) was > 100 µM. The TGI (SK-MEL-2 melanoma) was > 100 µM, the TGI (SK-MEL-28 melanoma) was > 100 µM and the TGI (SK-MEL-5 melanoma) was 95.7 µM. For the same compound, the TGI (SK-OV-3 ovarian) was 94.1 µM, the TGI (SN12C renal) was > 100 µM and the TGI (SNB-19 CNS) was > 100 µM. For the same compound, the TGI (SNB-75 CNS) was > 100 µM, the TGI (SW-620 colon) was > 100 µM and the TGI (T-47D breast) was > 100 µM. The TGI (TK-10 renal) was > 100 µM, the TGI (U251 CNS) was > 100 µM and the TGI (UACC-257 melanoma) was > 100 µM. For the same compound, the TGI (UACC-62 melanoma) was > 100 µM and the TGI (UO-31 renal) was > 100 µM.
